{"source": "patent US6544561B2", "about": "(The Lachlan Family Pty Ltd., priority 1997, dated 2003)", "key": {"[1]": {"tested_on": "outbred (Swiss) female mice", "settings": "drinking water with Mg2+ 120 mg per liter from weaning, fed on alternate days", "procedure": "A short-lived mammalian species was chosen. […] Two hundred outbred (Swiss) female mice were divided randomly at weaning into two groups of 100 mice and were maintained under identical management and environmental conditions.\nThe second group of mice was supplied with drinking water that contained magnesium sulphate (Epsom salts) 1 gram per liter with a pH value between pH 6.5 and pH 7.0. This drinking water contained approximately Mg^2+ 120mg per liter. Bicarbonate anions were absent.\nBoth groups of mice were fed commercial laboratory food that contained 1 gram of magnesium per kilogram of food. Both groups of mice were fed on alternate days with no food available on the other days. Group-specific drinking water (as described above) was available at all times."}, "[2]": {"settings": "with lowered body weight; text refers to the trial of Example 5", "method": "A trial involving people consuming bicarbonate anions in water was conducted. These people were middle aged and overweight and complained of tiredness and lethargy. No control group was maintained for the duration of the trial (people in an initial control group were unable to consume the volumes of soft water required). […] They were requested to decrease their food (calorie) intake considerably and to avoid dietary fats.\nBicarbonate concentration was established at a maximum of one gram per liter.\nEach participant in the trial was advised to consume the bicarbonate solution ‘on an empty stomach’. […] Advice was given also to consume the solution in small amounts at set times each day. Consumption in this manner avoided a rapid increase in the bicarbonate concentrations of body fluids."}, "[3]": {"tested_on": "post menopausal women with osteoarthritis in the joints of their hands", "settings": "in vivo", "from_the_text": "For an experimental trial, a group of post menopausal women were chosen who had clinical signs of osteoarthritis in the joints of their hands. The osteoarthritic joints included the distal and proximal interphalangeal joints of the fingers and the carpometacarpal joint of the thumbs. In all cases, loss of joint function was moderate to severe.\nIn all cases, the women suffered pain, swelling of the fingers and loss of joint movement. […] Women with affected thumbs had considerable loss of function and considerable pain. […] The women consumed between 2 to 3 liters of bicarbonate solution per day. […] Consumption was commenced at half a liter per day and increased by increments over a period of one month to 2 to 3 liters per day. Consumption occurred on an empty stomach to avoid the loss of bicarbonate by stomach acid. Consumption occurred in small amounts (300 mL) at set times each day to avoid rapid increases in bicarbonate concentrations of body fluids."}}, "data": [{"molecule": "O=S(=O)([O-])[O-].[Mg+2]", "note": "[magnesium sulphate, reference compound]", "values": [{"measurement": "Fifty Percent Survival", "setting": "[1]", "result": 736, "unit": "days"}, {"measurement": "Maximum Life Span", "setting": "[1]", "result": 1040, "unit": "days"}]}, {"molecule": "magnesium bicarbonate", "values": [{"measurement": "Blood pressure", "setting": "[2]", "result": "reduction in high blood pressure to a normal value"}, {"measurement": "Fifty Percent Survival", "setting": "[1]", "result": 790, "unit": "days"}, {"measurement": "Maximum Life Span", "setting": "[1]", "result": 1152, "unit": "days"}, {"measurement": "Pain and swelling associated with osteoarthritis", "setting": "[3]", "result": "alleviated the pain and swelling associated with osteoarthritis"}]}]}
